According to paper PMC9668830, “Identification of fungal lignocellulose-degrading biocatalysts secreted by Phanerochaete chrysosporium via activity-based protein profiling” (Communications Biology, 2022):

Tests used:
Phchr2|2915237 = system: T1, Phchr2|2915237; experiment: discontinuous pNP release at […] nm; assay type: biochemical, Phanerodontia chrysosporium; details: phosphate citrate buffer; pH and temperature of the kinetics not restated (optimum pH 5, 60 °C)
T1 construct: gene phchr2_2915237; synthetic gene from JGI model, secreted by Aspergillus oryzae, C-terminal 6xHis tag kept, Ni-purified

Phchr2|126075 = system: T2, Phchr2|126075; experiment: continuous pNP release at […] nm, filtered K. lactis culture supernatant; assay type: biochemical, Phanerodontia chrysosporium; details: 50 mM TRIS pH 8, 20 mM KCl, 40 °C
T2 construct: gene phchr2_126075; filtered culture supernatant assayed

WP_074995790 = target: T3, WP_074995790 (Streptomyces misionensis, UniProt A0A1H5HEE9); experiment: pNP release at […] nm; assay type: biochemical; details: 200 µM substrate, phosphate citrate buffer; only specific activity reported
T3 construct: gene SAMN04490357_7452; synthetic gene without secretion signal, pET20b, C-terminal His-tag, E. coli Rosetta DE3, Ni-IDA purified
T3 sequence (A0A1H5HEE9 63-752): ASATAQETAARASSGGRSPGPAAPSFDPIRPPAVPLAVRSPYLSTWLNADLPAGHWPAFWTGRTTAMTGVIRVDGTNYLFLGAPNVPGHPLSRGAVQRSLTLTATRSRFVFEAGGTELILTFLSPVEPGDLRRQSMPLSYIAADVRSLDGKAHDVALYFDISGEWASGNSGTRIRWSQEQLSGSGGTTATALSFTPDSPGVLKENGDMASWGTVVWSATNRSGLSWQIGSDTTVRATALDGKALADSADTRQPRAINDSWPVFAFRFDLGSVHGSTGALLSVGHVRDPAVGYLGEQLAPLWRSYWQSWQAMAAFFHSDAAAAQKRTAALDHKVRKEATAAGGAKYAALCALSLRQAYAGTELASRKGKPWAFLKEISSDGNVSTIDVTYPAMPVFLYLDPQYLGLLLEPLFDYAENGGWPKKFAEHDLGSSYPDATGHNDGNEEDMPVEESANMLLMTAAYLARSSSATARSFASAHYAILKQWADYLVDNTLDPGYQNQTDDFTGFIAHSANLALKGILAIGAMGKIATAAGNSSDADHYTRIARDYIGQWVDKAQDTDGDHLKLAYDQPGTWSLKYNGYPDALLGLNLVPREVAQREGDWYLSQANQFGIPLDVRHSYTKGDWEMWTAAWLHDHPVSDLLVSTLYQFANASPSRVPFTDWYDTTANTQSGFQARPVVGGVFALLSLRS

Km (Phchr2|2915237) [µM]	Structure (SMILES)	also measured
1820	O=[N+]([O-])c1ccc(O[C@@H]2O[C@H](CO)[C@@H](O)[C@H](O)[C@H]2O)cc1 [pNP-Glc]	–
–	CC(=O)Oc1ccc([N+](=O)[O-])cc1 [pNP-acetate]	Km (Phchr2|126075): 670 µM
–	O=[N+]([O-])c1ccc(O[C@@H]2O[C@H](CO)[C@H](O)[C@H](O)[C@H]2O)cc1 [pNP-Gal]	pNP release at 410 nm (WP_074995790): we were able to detect a weak β-galactosidase activity
6980	O=[N+]([O-])c1ccc(O[C@@H]2OC[C@@H](O)[C@H](O)[C@H]2O)cc1 [pNP-Xyl]	–
